This note sets out measurements from ChEMBL document CHEMBL1124812, “Vinblastine and vincristine are inhibitors of monoamine oxidase B” (J Med Chem, 1990).

The test concerns the target T1, Amine oxidase [flavin-containing] B (Bos taurus, UniProt P56560).
T1 sequence (P56560 whole entry): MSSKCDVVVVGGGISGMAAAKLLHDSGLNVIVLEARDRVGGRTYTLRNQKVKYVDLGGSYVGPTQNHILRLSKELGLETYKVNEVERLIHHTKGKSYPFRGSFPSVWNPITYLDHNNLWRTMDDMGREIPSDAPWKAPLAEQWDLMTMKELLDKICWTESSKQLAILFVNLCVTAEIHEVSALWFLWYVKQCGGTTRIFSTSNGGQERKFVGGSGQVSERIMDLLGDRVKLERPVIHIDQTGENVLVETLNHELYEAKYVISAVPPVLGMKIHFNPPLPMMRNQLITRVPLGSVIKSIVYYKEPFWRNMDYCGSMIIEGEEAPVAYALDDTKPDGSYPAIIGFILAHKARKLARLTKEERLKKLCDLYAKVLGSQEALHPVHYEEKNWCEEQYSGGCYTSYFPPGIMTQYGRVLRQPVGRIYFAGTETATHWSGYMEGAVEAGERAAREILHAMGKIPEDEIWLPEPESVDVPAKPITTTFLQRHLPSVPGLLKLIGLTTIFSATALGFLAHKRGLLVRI
Put plainly: Inhibitory activity against Monoamine oxidase B isolated from beef liver mitochondria was determined.

`CC[C@]1(O)C[C@@H]2CN(CCc3c([nH]c4ccccc34)[C@@](C(=O)OC)(c3cc4c(cc3OC)N(C)[C@H]3[C@@](O)(C(=O)OC)[C@H](OC(C)=O)[C@]5(CC)C=CCN6CC[C@]43[C@@H]65)C2)C1` [VINBLASTINE]: the affinity, expressed as Ki, was 77 µM.
